{
  "source": "patent US5369112A",
  "about": "“Method of treating cataracts caused by active oxygen” (Mitsubishi Gas Chemical Company, Inc., priority 1991, dated 1994)",
  "origin": "cited, not measured here",
  "key": {"[1]": {"conditions": "109th meeting of Japan Pharmacological Society, 1989; cited from earlier work"}, "[2]": {"tested_on": "liver diseases caused by carbon tetrachloride, endotoxin shock and cataracts caused by hydrocortisone", "conditions": "Watanabe 1988; Matsumoto 1989; Nishigoori 1989; cited from earlier work"}, "[3]": {"tested_on": "kidney", "conditions": "Watanabe et al, Hiroshima J. Med. Sci.; cited from earlier work"}},
  "data": [
    {"smiles": "O=C(O)c1cc(C(=O)O)c2c(n1)C(=O)C(=O)c1cc(C(=O)O)[nH]c1-2", "note": "[PQQ, pyrrolo quinoline quinone]", "values": [
      {"measurement": "active oxygen scavenging action", "setting": "[1]", "result": "strong active oxygen scavenging action"},
      {"measurement": "inhibition of diseases", "setting": "[2]", "result": "inhibits liver diseases caused by carbon tetrachloride, endotoxin shock and cataracts caused by hydrocortisone"},
      {"measurement": "kidney toxicity", "setting": "[3]", "result": "has kidney toxicity"}
    ]}
  ]
}
